Measured values from patent publication US20140228293A1, “PARATHYROID HORMONE ANALOGS, COMPOSITIONS AND USES THEREOF” (THE GENERAL HOSPITAL CORPORATION, priority 2011, published 2014).
Like-named read-outs stand apart in the source and are kept apart here.

Assay: Stability study by HPLC-MS under ambient conditions
Format: physicochemical
Description: High performance liquid chromatography-mass spectroscopy (HPLC-MS) was used to monitor the degradation of four synthetic compounds over a period of time.

[1] = room temperature, air, water solution, neutral pH, HPLC-MS

degradation after 7 days (estimated based on UV signal) | Substance | degradation after 7 days (estimated based on UV signal) [1]
 | [Nle^8,18]hPTH(1-37) [[Nle^8,11]hPTH(1-37)] | about 70%
less than 10% | [Nle^8,18]hPTH(1-84) [[Nle^8,11]hPTH(1-84)] | 
 | hPTH(1-37) (SVSEIQLMHNLGKHLNSMERVEWLRKKLQDVHNFVAL) | about 70%
